In PMC10291549, “Reaction Behavior of [1,3-Diethyl-4,5-diphenyl-1H-imidazol-2-ylidene] Containing Gold(I/III) Complexes against Ingredients of the Cell Culture Medium and the Meaning on the Potential Use for Cancer Eradication Therapy” (Journal of Medicinal Chemistry, 2023):

Assays:
A2780 cells = assay type: cell-based, human; settings: 72 h incubation; mean ± SD of two or three independent experiments; read-out: metabolic activity IC50, A2780
MCF-7 cells = assay type: cell-based, human; settings: 72 h incubation; mean ± SD of two or three independent experiments; read-out: metabolic activity IC50, MCF-7
IGROV1-CSC cells = assay type: cell-based; settings: 72 h incubation; mean ± SD of two or three independent experiments; read-out: metabolic activity IC50, IGROV1-CSC
A549 cells = assay type: cell-based; settings: 72 h incubation; mean ± SD of two or three independent experiments; read-out: metabolic activity IC50, A549
[1] = HPLC reactivity study with GSH in ACN/water; assay type: physicochemical; settings: t0h (1.5 min); 20 equiv GSH; ACN/water 50/50; 0.5 mM
Procedure: All nucleophiles (chloride, amino acids, and GSH) were separately reacted with 5–11 in ACN/water = 50/50 (v/v) mixtures at a complex concentration 0.5 mM. This solvent composition was chosen to prevent precipitation of the complex and the formed degradation products.
Amino acids, as well as GSH, were used in 20-fold excess, as realized at a complex concentration of 10 μM in the cell culture medium. Thereto, the respective complex, dissolved in ACN (1 mM), was combined with the same amount of aqueous solution of the nucleophile (20 mM).
The mixture was then incubated for 24 h at rt and monitored at various time points via HPLC using an RP-C18 column and gradient elution (70/30 (v/v) to 90/10 (v/v)) of ACN/water (0.1% trifluoroacetic acid (TFA)).
(§1) Experiments in ACN/water: 1.0 mM solutions of the respective complex were prepared in ACN and diluted with HPLC-grade water (50/50, (v/v)) containing the double-concentrated amount of respective amino acid (20 mM), GSH (20 mM), sodium ascorbate (20 mM), or NADPH (20 mM). As a chloride source, an aqueous solution of KCl 0.8 g/L and NaCl 12 g/L was used. In each case, a final complex concentration of 0.5 mM was achieved. The solutions were incubated for 24 h at rt. For the experiments with RPMI 1640, the aqueous phase was replaced by a cell culture medium.
(§2) Samples (20 μL each) were taken at appropriate time points (t = 0 (1.5 min), 0.5, 1, 1.5, 2, 8, 12, and 24 h) and analyzed with a Shimadzu prominence HPLC system. The mobile phase consisted of ACN (HPLC-grade) and water (HPLC-grade) with 0.1% TFA. To achieve a separation of the compounds, gradient elution from (70/30 (v/v) to 90/10 (v/v)) of ACN/water (0.1% trifluoroacetic acid (TFA)) was used with a flow rate of 1 mL/min at an oven temperature of 35 °C. All solvents have been degassed before use. The injection volume was 20 μL, and the detection wavelength was set at 235 nm, to detect the gold complexes and the amino acids in the chromatogram.

[2] = HPLC reactivity study in chloride containing ACN/water; assay type: physicochemical; settings: t24h; chloride containing ACN/water 50/50; 0.5 mM
[3] = tested on: A549-R cells (Taxol/Paclitaxel-resistant subclone); assay type: cell-based; settings: 72 h incubation; mean ± SD of two or three independent experiments; read-out: metabolic activity IC50, A549-R
[4] = HPLC reactivity study with NADPH; assay type: physicochemical; settings: 24 h
Procedure: (§3) GSH caused only substitution reactions, without reduction of Au(I) to Au(0). […] Neither reduction to gold(0), release of the NHC ligand, nor coordination to the gold(I) center occurred.
as §1, §2

[5] = tested on: K562-R cells (Doxorubicin-resistant subclone); assay type: cell-based; settings: 72 h incubation; mean ± SD of two or three independent experiments; read-out: metabolic activity IC50, K562-R
[6] = HPLC degradation study in ACN/RPMI 1640 cell culture medium; settings: t24h; ACN/RPMI 1640 50/50; 0.5 mM
[7] = tested on: A2780cis cells (Cisplatin-resistant); assay type: cell-based, human; settings: 72 h incubation; mean ± SD of two or three independent experiments; read-out: metabolic activity IC50, A2780cis
[8] = HPLC control experiment with GSH in PBS; assay type: physicochemical; settings: 20 equiv GSH in PBS
Procedure: The reduced transformation (compared to the direct reaction with GSH) might be the consequence of the high chloride concentration in the medium. To confirm this assumption, 5 was incubated in a control experiment with 20 equiv of GSH (as described above) in phosphate buffered saline (PBS). At t0h, 65.7% of 12 was formed. The amount increased during 24 h to 68.0% of 12 and 2.1% of 8 appeared (Figure S33).
as §1, §2

[9] = tested on: SV-80 lung fibroblast cells; assay: Modified MTT assay in noncancerous cells; assay type: cell-based; settings: at 10 μM; mean of three independent experiments
[10] = tested on: MCF-7TamR cells (Tamoxifen-resistant subline); assay type: cell-based, human; settings: 72 h incubation; mean ± SD of two or three independent experiments; read-out: metabolic activity IC50, MCF-7TamR
IGROV1 cells = assay type: cell-based; settings: 72 h incubation; mean ± SD of two or three independent experiments; read-out: metabolic activity IC50, IGROV1
[11] = HPLC reactivity study with sodium ascorbate; assay type: physicochemical; settings: 24 h
Procedure: as §3, §1, §2

K562 cells = assay type: cell-based; settings: 72 h incubation; mean ± SD of two or three independent experiments; read-out: metabolic activity IC50, K562

Substance “Chlorido[1,3-diethyl-4,5-diphenyl-1H-imidazol-2-ylidene]gold(I) [Complex 5]” has an IC50 (A2780 cells) of 9.45 ± 0.96 µM, an IC50 (MCF-7 cells) of 5.76 ± 0.88 µM and an IC50 (IGROV1-CSC cells) of 9.18 ± 1.32 µM. For the same substance, the IC50 (A549 cells) was over 10 µM, the “substitution to (NHC)Au(I)-GSH adduct 12” value [1] was “quantitatively” and the “formation of 8 (ligand scrambling / reduction)” value [2] was 0.9%. The IC50 [3] was over 10 µM, the “ligand scrambling to 8” value [4] was 5.6% and the IC50 [5] was over 10 µM. The “formation of 8” value [6] was 6.2%, the “formation of GSH-adduct 12” value [6] was 5.1% and the IC50 [7] was 4.08 ± 0.8 µM. For the same substance, the “formation of 12” value ([8]; t0h) was 65.7%, the “formation of 8” value ([8]; t24h) was 2.1% and the “formation of 12” value ([8]; t24h) was 68.0%. For the same substance, the “metabolic activity (remaining) in SV-80 cells” value [9] was 64%, the IC50 [10] was 4.95 ± 0.39 µM and the IC50 (IGROV1 cells) was 7.53 ± 1.9 µM. For the same substance, the “ligand scrambling to 8” value [11] was 3.4% and the IC50 (K562 cells) was over 10 µM.
